Laboratory results from patent publication US20220306617A1, “SUBSTITUTED 1,3-PHENYL HETEROARYL DERIVATIVES AND THEIR USE IN THE TREATMENT OF DISEASE” (NOVARTIS AG, priority 2019, published 2022).
Where “and” joins values, the source holds several entries; their conditions need not be identical. Identical values can stand only once. Counter-ions that a name gives are not always drawn.

Target: T1, abc isoform of human TMEM16A channel expressed in CHO cells (Homo sapiens, UniProt Q5XXA6, DEL476-501)
T1 construct: expressed in transfected cells; host or cells: CHO cells, doxycycline-inducible expression under Blasticidin/Zeocin selection
T1 sequence (Q5XXA6 with tags, fused parts or gaps isoform Q5XXA6-5 DEL539-564): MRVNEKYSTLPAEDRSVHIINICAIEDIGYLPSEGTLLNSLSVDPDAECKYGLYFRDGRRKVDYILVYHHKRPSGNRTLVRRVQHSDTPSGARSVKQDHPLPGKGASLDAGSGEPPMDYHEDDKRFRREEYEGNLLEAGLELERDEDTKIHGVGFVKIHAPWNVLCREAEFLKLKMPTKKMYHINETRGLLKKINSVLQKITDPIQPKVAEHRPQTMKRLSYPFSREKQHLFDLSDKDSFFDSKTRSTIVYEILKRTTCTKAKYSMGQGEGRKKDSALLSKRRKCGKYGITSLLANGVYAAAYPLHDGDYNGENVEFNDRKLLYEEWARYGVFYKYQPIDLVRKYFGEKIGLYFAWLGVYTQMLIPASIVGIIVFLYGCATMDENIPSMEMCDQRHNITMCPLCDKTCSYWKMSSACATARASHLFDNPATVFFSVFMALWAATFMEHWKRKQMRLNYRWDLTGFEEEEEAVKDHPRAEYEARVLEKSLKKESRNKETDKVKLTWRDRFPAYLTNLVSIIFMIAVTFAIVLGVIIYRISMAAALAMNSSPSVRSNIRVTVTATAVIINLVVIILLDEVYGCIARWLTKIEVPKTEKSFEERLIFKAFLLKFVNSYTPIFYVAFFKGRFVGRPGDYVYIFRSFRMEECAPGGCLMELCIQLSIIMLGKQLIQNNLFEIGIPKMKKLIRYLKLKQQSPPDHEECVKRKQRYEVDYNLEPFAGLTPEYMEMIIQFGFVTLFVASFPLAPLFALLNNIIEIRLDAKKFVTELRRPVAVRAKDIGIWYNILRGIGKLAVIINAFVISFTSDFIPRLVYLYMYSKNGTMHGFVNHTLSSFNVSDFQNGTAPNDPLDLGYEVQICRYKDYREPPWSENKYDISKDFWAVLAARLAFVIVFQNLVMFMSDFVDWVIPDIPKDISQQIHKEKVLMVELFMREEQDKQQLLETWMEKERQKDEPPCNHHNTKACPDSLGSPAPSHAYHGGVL
Experiment: Automated patch clamping (QPatch) assay to measure TMEM16A activity in whole-cell
Format: cell-based
Settings: for EC50: CHO cells expressing human TMEM16A (abc), whole-cell automated patch clamp, Hill fit, read-out: TMEM16A QPATCH assay EC50 V3 EC50; for Emax: CHO, read-out: TMEM16A QPATCH assay EC50 V3 Assay Window (% TMEM16A max activation)
Method: Automated Patch Clamping Assay to Measure TMEM16A Activity in Whole-Cell
Chinese hamster ovary cells (CHO) cells expressing abc isoform of human TMEM16A channel (Ref) were grown in vented cell-culture flasks (Corning) containing cell culture medium (1×F-12 Ham, 10% FBS, 1% Penicillin-streptomycin, 5 μg/mL Blasticidin S HCl, 400 μg/mL Zeocin), maintained at 37° C. in an incubator with 5% C02, 95% 02 and 100% humidity. The cells were passaged every 2-3 days at 80-90% confluence by aspirating the cell culture medium, washing twice with 10 mL D-PBS then incubating with 4 mL Trypsin-EDTA for no longer than 5 minutes. Trypsin was neutralized with the addition of 32 mL growth medium to the cell suspension, the cells were counted using a viable-cell counter (Vi-CELL; Beckmann-Coulter) and new flasks were seeded at a cell density of 0.01, 0.02, or 0.05×10^6 cells per cm2 for 3, 2, or 1 day(s) growth, respectively. Cell suspension was diluted in the new 175 cm2 flask with 50 mL of growth medium. Doxycycline was used to induce the expression of TMEM16A channel protein and was added directly to the culture flask 18-24 hours in advance of assay at a final concentration of 1 μg/mL. Induced cells were washed with D-PBS and detached from their culture flasks by adding 10 mL of Detachin and incubating for 10 minutes. Once detached, 5 mL of QPatch assay medium (1×CHO-S-SFM II (Sigma), 25 mM HEPES) was added and the resultant cell suspension counted using the Vi-CELL viable cell counter. The optimal cell density for this QPatch assay is 2-5×1 06 cells/mL; re-adjusted as necessary with QPatch assay medium.
The ion channel activity of TMEM16A (abc) expressed in CHO cells was assed using an automated patch clamp system (Qpatch, Sophion). These systems use planar patch-clamp technology to enable high-resistance, continuous whole-cell recordings from multiple cells in parallel, whilst maintaining each individual cell as an isolated experiment. First, each well was primed with intracellular and extracellular solutions described below. Cells were spun down, washed and then resuspended using extracellular solution. Intracellular solution: 130 mM N-methyl-D-glucamine, 10 mM EGTA, 20 mM CaCl2, 1 mM MgCl2, 10 mM HEPES 10, 10 mM BAPTA, 99 mM Sucrose, 2 mM Mg-ATP, pH 7.3, 320 mOsm Extracellular solution: 130 mM N-methyl-D-glucamine, 10 mM EGTA, 20 mM CaCl2, 1 mM MgCl2, 10 mM HEPES 10, 10 mM BAPTA, 99 mM Sucrose, 2 mM Mg-ATP, pH 7.3, 320 mOsm. Resuspended cells were then added to each well and suction was applied from the intracellular side in order to position a cell on the chip aperture, form a high resistance (GO) seal and achieve a whole-cell recording configuration. Following successful whole cell access, cell membranes were maintained at a voltage of −70 mV until the voltage protocol is applied. From this voltage, membranes were depolarized to +70 mV for 1500 ms, and then hyperpolarized to […] before being depolarized again from −90 to +70 mV in a continuous ramp waveform. At the end of the ramp, the membrane voltage is stepped back to −70 mV until the next waveform was applied. Compounds were dissolved at 10 mM in 100% DMSO and then diluted into extracellular solution (0.3% DMSO final) to the desired final concentration. The assay lower and upper limit were defined as follow, average amplitude (nA) of the last 3 sweeps in the vehicle addition of each cell was considered the basal current (lower limit); the average maximum current response in 3 cells for a reference potentiator at maximal concentration (upper limit). Current values for each compound concentration were then plotted against […]. EC50 curves are fitted to concentration-response data using curve-fitting functions (Hill fit) within the QPatch software. Curve fitting is constrained between the lowest concentration (vehicle-only addition) and the highest current value measured within the concentration range. […]

[1] = maximum current at highest dose relative to reference potentiator at maximal concentration (upper limit) and vehicle (lower limit)

Row | Compound | EC50 | Emax [1] [%] | TMEM16A QPATCH assay EC50 V3 Assay Window (% TMEM16A max activation) [1] [%]
1 | CCOC(=O)[C@@H](NC(=O)c1cnc(-c2cccc(-c3cc(C(=O)NC(CC)CC)n[nH]3)c2)o1)C(C)C [Example 1.1, (S)-Ethyl 3-Methyl-2-(2-(3-(3-(Pentan-3-Ylcarbamoyl)-1 H-Pyrazol-5-Yl)Phenyl)Oxazole-5-Carboxamido)Butanoate] | 20 nM and 10 nM | 90 | 100
2 | CCOC(=O)[C@@H](NC(=O)c1cnc(-c2cccc(-c3cc(C(=O)N[C@@H](C(=O)OC)C(C)C)[nH]n3)c2)o1)C(C)C [Example 2.0, (S)-Ethyl 2-(2-(3-(5-(((R)-1-Methoxy-3-Methyl-1-Oxobutan-2-Yl)Carbamoyl)-1 H-Pyrazol-3-Yl)Phenyl)Oxazole-5-Carboxamido)-3-Methylbutanoate] | 140 nM | 87 | –
3 | CCC(CC)NC(=O)c1cnc(-c2cccc(-c3cc(C(=O)N[C@H](C)C(C)C)n[nH]3)c2)o1 [Example 3.37, (R)-2-(3-(3-((3-Methylbutan-2-Yl)Carbamoyl)-1H-Pyrazol-5-Yl)Phenyl)-N-(Pentan-3-Yl)Oxazole-5-Carboxamide] | 200 nM | 109 | –
4 | CCC(CC)NC(=O)c1cnc(-c2cccc(-c3cc(C(=O)N[C@@H](COC(C)(C)C)C(=O)OC(C)(C)C)n[nH]3)c2)o1 [Example 3.61, (S)-Tert-Butyl 3-(Tert-Butoxy)-2-(5-(3-(5-(Pentan-3-Ylcarbamoyl)Oxazol-2-Yl)Phenyl)-1 H-Pyrazole-3-Carboxamido)Propanoate Trifluoroacetate] | 130 nM | 123 | –
5 | CCC(CC)NC(=O)c1cnc(-c2cccc(-c3cc(C(=O)N[C@H](C(=O)OC)C(C)C)n[nH]3)c2)o1 [Example 3.41, (S)-Methyl 3-Methyl-2-(5-(3-(5-(Pentan-3-Ylcarbamoyl)Oxazol-2-Yl)Phenyl)-1H-Pyrazole-3-Carboxamido)Butanoate] | 130 nM | 89 | –

The remaining compounds from weak to strong by EC50, led by results:

Row | EC50 | Emax [1] [%] | TMEM16A QPATCH assay EC50 V3 Assay Window (% TMEM16A max activation) [1] [%] | Compound
6 | 680 nM | 108 | – | C[C@H](NC(=O)c1cc(-c2cccc(-c3ncc(C(=O)N[C@H](C)C4CC4)o3)c2)nn1CCO)C1CC1 [Example 10.2, N-((R)-1-Cyclopropylethyl)-2-(3-(5-(((S)-1-Cyclopropylethyl)Carbamoyl)-1-(2-Hydroxyethyl)-1H-Pyrazol-3-Yl)Phenyl)Oxazole-5-Carboxamide]
7 | 560 nM | 82 | – | CCC(CC)NC(=O)c1cc(-c2cccc(-c3ncc(C(=O)Nc4cc(C)cc(C)c4)o3)c2)[nH]n1 [Example 1.3]
8 | 470 nM | 77 | – | COC(=O)[C@H](CC1CCCCC1)NC(=O)c1cnc(-c2cccc(-c3nnc(C(=O)N[C@@H](C)C4CC4)[nH]3)c2)o1 [Example 12.17, (S)-Methyl 3-Cyclohexyl-2-(2-(3-(5-(((S)-1-Cyclopropylethyl)Carbamoyl)-4H-1,2,4-Triazol-3-Yl)Phenyl)Oxazole-5-Carboxamido)Propanoate]
9 | 290 nM | 140 | – | C[C@H](NC(=O)c1cnc(-c2cccc(-c3nc(C(=O)N[C@@H](C)C4CC4)n(CCCO)n3)c2)o1)C1CC1 [Example 16.2, N-((S)-1-Cyclopropylethyl)-2-(3-(5-(((S)-1-Cyclopropylethyl)Carbamoyl)-1-(3-Hydroxypropyl)-1H-1,2,4-Triazol-3-Yl)Phenyl)Oxazole-5-Carboxamide]
10 | 170 nM | 122 | – | CCC(CC)NC(=O)c1cnc(-c2cccc(-c3cc(C(=O)NC4(C5CC5)CC4)n[nH]3)c2)o1 [Example 3.6, 2-(3-(3-([1,1′-Bi(Cyclopropan)]-1-Ylcarbamoyl)-1H-Pyrazol-5-Yl)Phenyl)-N-(Pentan-3-Yl)Oxazole-5-Carboxamide]
11 | 60 nM | 98 | – | COC(=O)[C@@H](NC(=O)c1cnc(-c2cccc(-c3cc(C(=O)N[C@H](C)C4CC4)n[nH]3)c2)o1)C(C)C [Example 1.5, (S)-Methyl 2-(2-(3-(3-(((R)-1-Cyclopropylethyl)Carbamoyl)-1H-Pyrazol-5-Yl)Phenyl)Oxazole-5-Carboxamido)-3-Methylbutanoate]
